Assay results reported in publication PMC9090141 (Pediatric blood & cancer, 2021).
Entries after “also recorded” stand apart in the source; their conditions may differ. Where a name gives a salt, the structure may show the parent alone. Read-outs that look alike come from different tables or passages of the source.

Tested on: pediatric patients with recurrent or refractory solid and CNS tumors
[1] = cycle 1, Dose Level 2 (N=5), 100 mg/m^2
[2] = cycle 1, Dose Level 3 (N=4), 125 mg/m^2
[3] = cycle 1, Dose Level 4 (N=10), 150 mg/m^2
[4] = cycle 1, drug-related, all dose levels, 25 evaluable

## COc1cccc(OCCCN)c1-c1cc(Nc2cnc(C#N)cn2)n[nH]1 [prexasertib, Prexasertib mesylate monohydrate]
[1]
  Headache, ≥ Grade 3: 0 (0) No. (%)
  Hypokalemia, All: 2 (40) No. (%)
  Hypokalemia, ≥ Grade 3: 0 (0) No. (%)
  Hypophosphatemia, All: 0 (0) No. (%)
  Hypophosphatemia, ≥ Grade 3: 0 (0) No. (%)
  Infusion-related reaction, All: 1 (20) No. (%)
  Infusion-related reaction, ≥ Grade 3: 0 (0) No. (%)
  Lymphocyte count decreased, All: 2 (40) No. (%)
  Lymphocyte count decreased, ≥ Grade 3: 0 (0) No. (%)
  Myalgia, All: 1 (20) No. (%)
  Myalgia, ≥ Grade 3: 0 (0) No. (%)
  Nausea, All: 1 (20) No. (%)
  Nausea, ≥ Grade 3: 0 (0) No. (%)
  Neutrophil count decreased, All: 5 (100) No. (%)
  Neutrophil count decreased, ≥ Grade 3: 5 (100) No. (%)
  Platelet count decreased, All: 5 (100) No. (%)
  Platelet count decreased, ≥ Grade 3: 2 (40) No. (%)
  Vomiting, All: 1 (20) No. (%)
  Vomiting, ≥ Grade 3: 0 (0) No. (%)
  White blood cell decreased, All: 5 (100) No. (%)
  White blood cell decreased, ≥ Grade 3: 3 (60) No. (%)
[2]
  Alanine aminotransferase increased, All: 0 (0) No. (%)
  Alanine aminotransferase increased, ≥ Grade 3: 0 (0) No. (%)
  Anemia, All: 3 (75) No. (%)
  Anemia, ≥ Grade 3: 1 (25) No. (%)
  Anorexia, All: 0 (0) No. (%)
  Anorexia, ≥ Grade 3: 0 (0) No. (%)
  Aspartate aminotransferase increased, All: 0 (0) No. (%)
  Aspartate aminotransferase increased, ≥ Grade 3: 0 (0) No. (%)
  Diarrhea, All: 0 (0) No. (%)
  Diarrhea, ≥ Grade 3: 0 (0) No. (%)
  Electrocardiogram QT corrected interval prolonged, All: 2 (50) No. (%)
  Electrocardiogram QT corrected interval prolonged, ≥ Grade 3: 0 (0) No. (%)
  Fatigue, All: 2 (50) No. (%)
  Fatigue, ≥ Grade 3: 0 (0) No. (%)
  Headache, All: 1 (25) No. (%)
  Headache, ≥ Grade 3: 0 (0) No. (%)
  Hypokalemia, All: 1 (25) No. (%)
  Hypokalemia, ≥ Grade 3: 0 (0) No. (%)
  Hypophosphatemia, All: 0 (0) No. (%)
  Hypophosphatemia, ≥ Grade 3: 0 (0) No. (%)
  Infusion-related reaction, All: 0 (0) No. (%)
  Infusion-related reaction, ≥ Grade 3: 0 (0) No. (%)
  Lymphocyte count decreased, All: 2 (50) No. (%)
  Lymphocyte count decreased, ≥ Grade 3: 2 (50) No. (%)
  Myalgia, All: 0 (0) No. (%)
  Myalgia, ≥ Grade 3: 0 (0) No. (%)
  Nausea, All: 0 (0) No. (%)
  Nausea, ≥ Grade 3: 0 (0) No. (%)
  Neutrophil count decreased, All: 4 (100) No. (%)
  Neutrophil count decreased, ≥ Grade 3: 4 (100) No. (%)
  Platelet count decreased, All: 4 (100) No. (%)
  Platelet count decreased, ≥ Grade 3: 2 (50) No. (%)
  Vomiting, All: 0 (0) No. (%)
  Vomiting, ≥ Grade 3: 0 (0) No. (%)
  White blood cell decreased, All: 4 (100) No. (%)
  White blood cell decreased, ≥ Grade 3: 3 (75) No. (%)
[3]
  Alanine aminotransferase increased, All: 1 (10) No. (%)
  Alanine aminotransferase increased, ≥ Grade 3: 0 (0) No. (%)
  Anemia, All: 8 (80) No. (%)
  Anemia, ≥ Grade 3: 1 (10) No. (%)
  Anorexia, All: 1 (10) No. (%)
  Anorexia, ≥ Grade 3: 0 (0) No. (%)
  Aspartate aminotransferase increased, All: 1 (10) No. (%)
  Aspartate aminotransferase increased, ≥ Grade 3: 0 (0) No. (%)
  Diarrhea, All: 1 (10) No. (%)
  Diarrhea, ≥ Grade 3: 0 (0) No. (%)
  Electrocardiogram QT corrected interval prolonged, All: 4 (40) No. (%)
  Electrocardiogram QT corrected interval prolonged, ≥ Grade 3: 0 (0) No. (%)
  Fatigue, All: 2 (20) No. (%)
  Fatigue, ≥ Grade 3: 0 (0) No. (%)
  Headache, All: 2 (20) No. (%)
  Headache, ≥ Grade 3: 0 (0) No. (%)
  Hypokalemia, All: 2 (20) No. (%)
  Hypokalemia, ≥ Grade 3: 0 (0) No. (%)
  Hypophosphatemia, All: 3 (30) No. (%)
  Hypophosphatemia, ≥ Grade 3: 0 (0) No. (%)
  Infusion-related reaction, All: 1 (10) No. (%)
  Infusion-related reaction, ≥ Grade 3: 0 (0) No. (%)
  Lymphocyte count decreased, All: 5 (50) No. (%)
  Lymphocyte count decreased, ≥ Grade 3: 2 (20) No. (%)
  Myalgia, All: 2 (20) No. (%)
  Myalgia, ≥ Grade 3: 0 (0) No. (%)
  Nausea, All: 3 (30) No. (%)
  Nausea, ≥ Grade 3: 0 (0) No. (%)
  Neutrophil count decreased, All: 10 (100) No. (%)
  Neutrophil count decreased, ≥ Grade 3: 10 (100) No. (%)
  Platelet count decreased, All: 8 (80) No. (%)
  Platelet count decreased, ≥ Grade 3: 1 (10) No. (%)
  Vomiting, All: 4 (40) No. (%)
  Vomiting, ≥ Grade 3: 0 (0) No. (%)
  White blood cell decreased, All: 10 (100) No. (%)
  White blood cell decreased, ≥ Grade 3: 7 (70) No. (%)
[4]
  grade 3/4 anemia, patients: 12%
  grade 3/4 leukopenia, patients: 68%
  grade 3/4 lymphopenia, patients: 24%
  grade 3/4 neutropenia, patients: 100%
  grade 3/4 thrombocytopenia, patients: 24%
Cycle 1 or later, all dose levels 80-150 mg/m^2
  dose-limiting toxicities (DLTs): no cycle 1 or later dose-limiting toxicities; also recorded: No DLTs
